Results as given in patent EP0540143B1, “Compounds and methods for inhibition of HIV and related viruses” (priority 1991, dated 1993).
“And” between values parts separate entries of the source, which are not always exact repeats. Identical values can stand only once.

What was measured:
[1] = test system: HIV-1; assay: Test E (HIV-1 RT), RT activity in supernatant of infected MT-4/H9 cells; type: cell-based; details: for inhibition at 0.1 µg/mL / inhibition at 1 µg/mL / inhibition at 10 µg/mL / inhibition at 100 µg/mL: Human immunodeficiency virus 1, H9, Test E
Protocol: (§1) Tests E, F, G, H (HIV-IRT, HIV-2RT, SIVRT, no virus)
(§2) MT-4/H9-cells are adjusted to 2x10^5 cells/ml medium (RPMI 1640, 5% FCS, penicillin/streptomycin) and seeded into microplates (96 wells/plate) […] cell suspension/well giving 2 x 10^4 cells/well. The compound to be tested is made 10 mg/ml in DMSO = stock solution (stored at -20°C). The compound dissolved in DMSO is diluted 25 times in medium to give 400 mg/ml. Further dilutions to 40 mg/ml and 4 mg/ml are made in microplates.
(§3) 50 µl of the dilutions 400 mg/ml, 40 mg/ml and 4mg/ml are transferred to the "cell-containing" microplate with a multichannel pipette. […]
(§4) Finally 50 µl of virus suspension is added to each well (with a repetitive "Eppendorf multipett"). [Test E-HIV-1; Test F-HIV-2; Test G-SIV; Test H-no virus].
(§5) Each plate has at least four wells with virus but no drug (virus control) and two wells without virus (medium control). The plate is put into a plastic bag to avoid evaporation and incubated for six days in CO2-atmosphere. 10 µl supernatant from each well is transferred with a multichannel pipette into a new microplate to which 40 ml VDB, (50 mM Tris-HCl pH = 7.6, 35 mM KCl, 4 mM DTT, 1 mM EDTA, 1.3% Triton X-100), have been added to each well. The addition of 50 ml RT-reaction mix, (10 ml culture supernatant, 40 ml VDB and 50 ml reaction mixture giving a final concentration of: 100 mM Tris-HCl pH = 7.6, 100 mM KCl, 4 mM MgCl2, 4 mM DTT, 275 mg/ml BSA/ml, 5 mg (rA)n(dT)12-18/ml and 0.3 mM ^3H dTTP (specific activity 18.000 cpm/pmol)) gives a final volume of […]/well. After 60 minutes of incubation the whole assay volume is transferred by use of a cell harvester to a filter mat prewetted with 5% TCA. The filter is washed in 5% TCA and rinsed once in ethanol. After drying the filter mat at 60°C for 30 min. each filter (96/mat) is punched out and put into counting vials 2 ml of scintillation fluid is added and the samples are counted (1 min) or the whole filter mat is put into a plastic bag, 10 ml of scintillation fluid is added and the filter mat is counted in a Beckman Betaplate counter. Percent reduction of RT activity is determined by comparing RT activity for virus control with the RT activity measured for each dilution of the compound.

[2] = test system: HIV(II) virus; assay: Test B (XTT), MT4 cells infected with HIV(II); type: cell-based; details: for inhibition at 0.1 µg/mL / inhibition at 1 µg/mL / inhibition at 10 µg/mL / inhibition at 100 µg/mL: Human immunodeficiency virus 1, MT4, Test B
Protocol: (§6) Tests A, B, C, and D (XTT)
(§7) MT4 cells in a medium of RPMI 1640, 5% FCS, penicillin/streptomycin are adjusted to 2x10^5 cells/ml and seeded into microplates (96 wells/plate) 100 µl cell suspension/well giving 2x10^4 cells/well. The compound to be tested is made into a 10 mg/ml mixture in DMSO and stored at -20°C. The compound in DMSO is diluted with medium containing 10% DMSO in a 10-fold dilution series to give 1 mg/ml, 10 mg/ml, and […] solutions. Further dilutions to 400, 40, 4 and 0.4 mg/ml are made in medium containing microplates. Fifty µl of the 400, 40, and 4 mg/ml are transferred to the cell-containing microplates with a multi-channel pipette (final concentration: 100, 10, and 1 mg/ml). Finally, 50 µl of virus suspension is added to each well (with a repetitive "Eppendorf" multipipett). Each plate has at least six wells with the following: [Test A: HIV virus; Test B: HIV(II) virus; Test C: SIV virus; Test D: No virus]; with no drug (virus control) and six wells without virus (medium control). The plate is put into a plastic bag and incubated for six days in CO2 atmosphere. To each well in the plate is added 50 µl of XTT ((2,3-bis[2-methoxy-4-nitro-5-sulfophenyl]-5-[(phenylamino)carbonyl]-2H-tetrazolium hydroxide), (1 mg/ml 0.01-0.02 mM N-metyl-phenazonium methosulfate). After six hours of incubation in CO2 atmosphere the plates are covered with adhesive plate sealers and gently mixed on a vortex. Optical densities are determined at a wavelength of 450 nm and a reference wavelength of 650 nm. The percent reduction of cytotoxocity caused by the virus infection is calculated as follows: (OD450 compound - OD450 inf cells)/(OD450 uninf cells - OD450 inf cells)x 100 [formula]

[3] = test system: HIV-2; assay: Test F (HIV-2 RT), RT activity in supernatant of infected MT-4/H9 cells; type: cell-based; details: for inhibition at 0.1 µg/mL / inhibition at 1 µg/mL / inhibition at 10 µg/mL / inhibition at 100 µg/mL: Human immunodeficiency virus 2, H9, Test F; for % inhibition: Test F
Protocol: as §1, §2, §3, §4, §5

[4] = test system: MT4 cells; assay: Test D (XTT), MT4 cells, no virus; type: cell-based; details: Homo sapiens
Protocol: as §6, §7

[5] = target: recombinant HIV-RT (Human immunodeficiency virus type 1 group M subtype B, UniProt P04585); assay: Test I (HIVRT (rAdt)), direct inhibition of recombinant HIV-RT; type: biochemical
Protocol: The compounds were tested for direct inhibitory activity on HIV-RT in a volume of […] recombinant HIV-RT (diluted in virus disruption buffer to give 200.000 cpm).
100 mM Tris-HCl pH 7.6, 100 mM KCl, 4 mM MgCl2, 4 mM DTT, 275 mg/ml BSA, 0.5 mg (rA)n(dT)12-18 and 0.3 mM ^3H- dTTP (specific activity […]). After 60 minutess of incubation 40 ml in duplicate were spotted on paper discs and washed in 5% TCA. After rinsing the paper discs in ethanol they were dried and counted in scintillation fluid.

[6] = test system: HIV virus; assay: Test A (XTT), MT4 cells infected with HIV; type: cell-based; details: for inhibition at 0.1 µg/mL / inhibition at 1 µg/mL / inhibition at 10 µg/mL / inhibition at 100 µg/mL: Human immunodeficiency virus 1, MT4, Test A; for % inhibition: Test A
Protocol: as §6, §7

[7] = test system: SIV virus; assay: Test C (XTT), MT4 cells infected with SIV; type: cell-based; details: for inhibition at 1 µg/mL / inhibition at 10 µg/mL / inhibition at 100 µg/mL / inhibition at 0.1 µg/mL: Simian immunodeficiency virus, MT4, Test C; for % inhibition: Test C
Protocol: as §6, §7

Row | SMILES | inhibition at 0.1 µg/mL ([1]; 0.1 µg/ml) [%] | inhibition at 1 µg/mL [1] [%] | inhibition at 10 µg/mL [1] [%] | inhibition at 100 µg/mL [1] [%] | inhibition at 0.1 µg/mL [2] [%] | inhibition at 1 µg/mL ([2]; 1 µg/ml) [%] | inhibition at 10 µg/mL [2] [%] | inhibition at 0.1 µg/mL [3] [%] | inhibition at 1 µg/mL ([3]; 1 µg/ml) [%] | inhibition at 10 µg/mL ([3]; 10 µg/ml) [%] | inhibition at 100 µg/mL ([3]; 100 µg/ml) [%] | inhibition at 1 µg/mL [4] [%] | inhibition at 10 µg/mL [4] [%] | inhibition at 100 µg/mL [4] [%] | inhibition at 0.1 µg/mL ([5]; 0.1 µg/ml) [%] | inhibition at 1 µg/mL ([5]; 1 µg/ml) [%] | inhibition at 10 µg/mL ([5]; 10 µg/ml) [%] | inhibition at 1 µg/mL ([7]; 1 µg/ml) [%] | inhibition at 10 µg/mL [7] [%] | inhibition at 100 µg/mL [7] [%] | also measured
1 | S=C(NCCc1ccccc1)Nc1nc2ccccc2s1 | 1 | 77 | 96 | 95 | 17 | 99 | 100 | 1 | 87 | 84 | 96 | 32 | 27 | 23 | 39 | 36 | 40 | 0 | 1 | 8 | inhibition at 100 µg/mL [2]: 50%; inhibition at 0.1 µg/mL ([6]; 0.1 µg/ml): 0%; inhibition at 1 µg/mL ([6]; 1 µg/ml): 63%; inhibition at 10 µg/mL ([6]; 10 µg/ml): 100%; % inhibition ([6]; 1 µg/ml): 53%; % inhibition ([6]; 10 µg/ml): 99%
2 | Fc1ccc2nc(NC(=S)NCCc3ccccc3)sc2c1 | 1 | 51 | 16 | 95 | 4 | 40 | 12 | 4 | 77 | 62 | 97 | 5 | 28 | 0 | 33 | 38 | 39 | 2 | 5 | 19 | inhibition at 100 µg/mL [2]: 93%; % inhibition ([6]; 100 µg/ml): 100% and 72%
3 | S=C(NCCc1ccccc1)Nc1nnc[nH]1 |  |  |  |  |  |  |  |  |  |  |  | 33 | 33 | 0 | 12 | 14 | 14 | 5 | 8 | 15 | inhibition at 0.1 µg/mL [4]: 15%; inhibition at 1 µg/mL ([6]; 1 µg/ml): 11%; inhibition at 10 µg/mL ([6]; 10 µg/ml): 27%; inhibition at 100 µg/mL ([6]; 100 µg/ml): 45%
4 | N#Cc1csc(NC(=S)NCCc2ccccc2)n1 | 99 | 98 | 98 | 98 | 74 | 90 | 0 | 67 | 91 | 94 | 96 | 53 | 70 | 93 | 72 | 93 | 94 | 5 | 2 | 0 | inhibition at 100 µg/mL [2]: 0%; inhibition at 0.1 µg/mL [4]: 0%; % inhibition ([5]; 0.1 µg/ml): 73%; % inhibition ([5]; 1 µg/ml): 95%; % inhibition ([5]; 10 µg/ml): 95%; inhibition at 0.1 µg/mL ([6]; 0.1 µg/ml): 84%; inhibition at 1 µg/mL ([6]; 1 µg/ml): 51%; inhibition at 10 µg/mL ([6]; 10 µg/ml): 0%; inhibition at 100 µg/mL ([6]; 100 µg/ml): 0%; % inhibition ([6]; 1 µg/ml): 63%; inhibition at 0.1 µg/mL ([7]; 0.1 µg/ml): 11%
5 | FC(F)(F)c1csc(NC(=S)NCCc2ccccc2)n1 | 98 | 97 | 96 | 97 | 21 | 100 | 38 | 56 | 95 | 98 | 96 | 46 | 75 | 68 | 63 | 73 | 73 | 11 | 5 | 43 | inhibition at 100 µg/mL [2]: 19%; inhibition at 0.1 µg/mL [4]: 0%; % inhibition ([5]; 0.1 µg/ml): 68%; % inhibition ([5]; 1 µg/ml): 75%; % inhibition ([5]; 10 µg/ml): 75%; inhibition at 10 µg/mL ([6]; 10 µg/ml): 24%; % inhibition ([6]; 0.1 µg/ml): 62% and 84%; % inhibition ([6]; 1 µg/ml): 100% and 75% and 84%; % inhibition ([6]; 10 µg/ml): 16% and 31%; inhibition at 0.1 µg/mL ([7]; 0.1 µg/ml): 9%
6 | S=C(NCCc1ccccc1)Nc1nccs1 [the 1st table, row 1] |  | 99 | 99 | 99 |  |  |  | 43 | 75 | 57 | 95 | 18 | 33 | 45 |  |  |  |  |  |  | % inhibition ([1]; Test E, 0.1 µg/ml): 10% and 1%; % inhibition ([2]; Test B, 1 µg/ml): 0%; % inhibition ([3]; 1 µg/ml): 79%; % inhibition ([3]; 10 µg/ml): 76%; % inhibition ([3]; 100 µg/ml): 86%; inhibition at 0.1 µg/mL [4]: 31%; inhibition at 100 µg/mL ([6]; 100 µg/ml): 48%; % inhibition ([6]; 0.1 µg/ml): 4%; % inhibition ([6]; 10 µg/ml): 99% and 100% and 70% and 98%; % inhibition ([6]; 100 µg/ml): 58% and 64%; % inhibition ([7]; 0.1 µg/ml): 0% and 1%; % inhibition ([7]; 1 µg/ml): 0% and 8% and 2%
